Test results published in patent publication US10472664B2, “Screening assay for identification of poly(ADP-ribose) polymerase 1 inhibitors” (Institute for Cancer Research, priority 2014, dated 2019).

System: PARP-1
Test: PARP-1 regulation by purified histones in vitro, pADPr detected on Western blot
Type: biochemical
Conditions: PARP-1 pre-incubated with purified histone, then mixed with NAD; FIG. 2A, 2B
Method: FIGS. 2A-D show PARP-1 protein regulation by histones (poly(ADP-ribose) polymer is denoted “pADPr”). […] Full-length PARP-1 protein (left) and PARP-1 protein cleaved by Caspase 3 (right) were pre-incubated with randomly broken DNA or core histone H4, followed by mixing with NAD. The products of PARP-1 enzymatic activity, poly(ADP-ribose), were detected after PAGE on a Western blot using the anti-pADPr antibody. […] PARP-1 was pre-incubated with different coregulators, followed by mixing with NAD. The amount of the product of PARP-1 enzymatic activity, poly(ADP-ribose), was detected after PAGE on a Western blot using the anti-Change(s) pADPr antibody and quantified independently using the Image Quant.
The two pathways described in Example 1 can be separated in vitro by cleaving Zn-fingers from the PARP-1 protein using caspase 3. This isoform of PARP-1 can be still activated by H4, but not by DNA (FIG. 2, panel A). […] Although histones H2Av and H2AvSE inhibit PARP-1 by themselves, when contained inside of a nucleosome they facilitate PARP-1 interaction with H4 and thereby activate PARP-1 (FIG. 2 panel D). […] Without intending to be limited to any particular theory or mechanism of action, it is believed that interactions with histones play an important for PARP-1 activation in vivo in genotoxic stress response and in transcriptional pathways.

H2Av: purified histone variant H2Av
PARP-1 activation (poly(ADP-ribose) production): does not activate PARP-1
